Laboratory results from article PMC7651685 (Psychopharmacology, 2020).
Values joined by “and” are separate entries in the source; they are usually repeats but may differ in a detail not shown here. Identical values can stand only once. Counter-ions that a name gives are not always drawn. Like-named read-outs stand apart in the source and are kept apart here.

Legend:
DAT [1] = test system: DAT; parameters: method as in Hasenhuetl et al. [2015]; conditions: ref Hasenhuetl et al. [2015]; cited from earlier work
[2] = test system: dopamine transporters (DAT); assay: [18F]-FE-PE2I PET displacement: DAT occupancy, displacement half-time and brain entry (modified GRTM); format: in vivo, rhesus macaques (Macaca mulatta); conditions: for Brain entry time, Caudate / Brain entry time, Putamen / Brain entry time, Mean: modified GRTM; for Brain entry time, Mean: mean over animals and regions; for Percent maximum displacement (= % DAT occupancy), Caudate\Putamen mean, Mean ± SD: group mean of four animals; for Percent maximum displacement (= % DAT occupancy), Caudate\putamen mean, Mean: mean of two animals
Protocol: Two male and two female rhesus macaques (Macaca mulatta) housed at the Yale University School of Medicine (New Haven, CT) were used for the [^18F]-FE-PE2I imaging. In all experiments, [^18F]-FE-PE2I was administered as a bolus plus constant infusion (Kbol from 168 to 216 min; total radioactivity = 162 ± 27 MBq) over 4 h to establish steady-state DAT binding. Bolus/infusion delivery parameters (i.e., Kbol) for [^18F]-FE-PE2I for each monkey were determined from baseline [^18F]-FE-PE2I scans that utilized single bolus intravenous injections of the radiotracer (Carson et al. [1993]). Identical procedures were used for list-mode image acquisition with a Siemens Focus 220 PET scanner for all DAT brain studies. The dynamic PET imaging series were reconstructed into 57 frames (6 × 0.5 min, 3 × 1 min, 2 × 2 min, and 46 × 5 min) using filtered back projection with standard corrections for random, scatter, and attenuation provided by the camera manufacturer.
At 2 h into the [^18F]-FE-PE2I scan, under tracer steady-state conditions, DAS or MPH was administered i.v. either as a 3 min i.v. bolus or as a bolus plus 4-step infusion over 40 min (four 10-min steps). The drug bolus experiments were carried out in all four rhesus macaques, each receiving DAS at 0.2 and 0.1 mg/kg and MPH at 0.5 and 0.1 mg/kg. The drug bolus plus 4-step infusion experiments were conducted in two rhesus macaques, each receiving DAS bolus injection over 30 s followed by a 4-step infusion over 40 min (four 10-min steps, 1.55, 1.45, 1.4, 1.3 mg) and MPH bolus injection over 30 s followed by an infusion over 40 min (four 10-min steps, 1.15, 1, 0.85, 0.75 mg).
Reconstructed dynamic PET images were transferred and analyzed using the image processing software package PMOD 3.6 (PMOD Technologies, Zurich, Switzerland). The PET images were normalized to an MR rhesus brain template (Rohlfing et al. [2012]) and a region of interest (ROI) atlas including the caudate nucleus, putamen, and cerebellar cortex was applied. Average activity concentration (kBq/cc) within each ROI was determined and time-activity curves (TAC) representing the regional brain activity concentration over time were generated. TACs were additionally expressed in SUV units (g/ml) by normalizing by the weight of the animal and the injected dose.
Reductions in radiotracer binding following administration of DAS or MPH were used to determine DAT occupancy while reductions in radiotracer binding over time were used to estimate brain entry and binding rates. The displacement half-time is defined as the time it takes from drug administration until 50% of maximal tracer displacement is achieved. Tracer displacement half-times were estimated using average uptake levels from the baseline and displacement experiments and expressing the change in standardized uptake values (SUV) units as a fraction (normalized) of the observed SUV difference at the end of the experiment. Normalized SUV values for caudate and putamen respectively were plotted against time for each dose of DAS and MPH respectively to estimate the drug displacement half-time.
Brain entry of DAS and MPH was determined by analyzing the [^18F]-FE-PE2I TACs in the putamen and caudate nucleus using a kinetic model using the cerebellar cortex as a reference region. The kinetic model is based on the generalized reference tissue model (GRTM; Votaw et al. [2002]) and a recent report of brain entry and binding rates measurement (Nicolas et al. [2016]). […] The half-life of the brain entry and binding of the drug was estimated as ln(2)/α. The kinetic model employs 5 parameters: R1, BPND, r, α, and k2′ where R1 is the relative tracer influx rate constant and k2′ is the reference tissue tracer efflux rate constant. The maximum occupancy was constrained to the measured displacement, while k2′ and α were constrained to a common value across the putamen and caudate nucleus.

plasma protein = conditions: cited from earlier work
[3] = rodent, 14C-DAS; Data-on-file; ref Sunovion report 360-365; cited from earlier work
DAT [4] = conditions: ref Rowley et al. [2017]; read-out: Affinity for DAT, IC50; cited from earlier work
[5] = test system: solute carrier (SLC) and organic anion transporters (OAT); conditions: LLC-PK1 cell monolayers and Xenopus Laevis Oocytes; Data-on-file; ref Sunovion Reports #531, 544, 575; cited from earlier work
[6] = test system: efflux transporters of the ATP binding cassette (ABC) superfamily; conditions: LLC-PK1 cell monolayers and Xenopus Laevis Oocytes; Data-on-file; ref Sunovion Reports #531, 544, 575; cited from earlier work
[7] = orally administered, recreational stimulant users; ref Koblan et al. [2016]; cited from earlier work
P-gp = conditions: LLC-PK1 cell monolayers and Xenopus Laevis Oocytes; Data-on-file; ref Sunovion Reports #531, 544, 575; cited from earlier work
[8] = 0.1 mg/kg MPH, bolus administration, individual animals A-D
[9] = 0.5 mg/kg MPH, bolus administration, individual animals A-D
[10] = 4.3 mg MPH, bolus + 4 step infusion, individual animals A, B
[11] = MPH 0.1 mg/kg i.v. 3 min bolus, individual animals A-D
[12] = MPH 0.5 mg/kg i.v. 3 min bolus, individual animals A-D
[13] = MPH 4.3 mg, bolus plus 4-step infusion over 40 min, individual animals A, B
[14] = 0.1 mg/kg DAS, bolus administration, individual animals A-D
[15] = 0.2 mg/kg DAS, bolus administration, individual animals A-D
[16] = 6 mg DAS, bolus + 4 step infusion, individual animals A, B
[17] = DAS 0.1 mg/kg i.v. 3 min bolus, individual animals A-D
[18] = DAS 0.2 mg/kg i.v. 3 min bolus, individual animals A-D
[19] = DAS 6.0 mg, bolus plus 4-step infusion over 40 min, individual animals A, B

## COC(=O)C(c1ccccc1)C1CCCCN1 (racemic) [MPH, (±)-Methyl α-Phenyl-α-(2-piperidyl)acetate hydrochloride, reference compound]
DAT [1]
  Association rate (kon) to DAT: 830000 M⁻¹ s⁻¹
[2]; 0.1 mg/kg MPH i.v. bolus
  Averaged displacement half-time (between caudate and putamen): 15.5 min
[2]; [8]
  Brain entry time, Caudate: 2.57 min and 3.41 min and 2.60 min and 3.44 min
  Brain entry time, Putamen: 2.34 min and 2.59 min and 2.91 min and 4.28 min
[2]; 0.1 mg/kg MPH, bolus administration
  Brain entry time, Mean: 3 min and 3.02 ± 0.65 min and 3.02 min
[2]; 0.5 mg/kg MPH i.v. bolus
  Averaged displacement half-time (between caudate and putamen): 11.5 min
[2]; [9]
  Brain entry time, Caudate: 2.25 min and 2.19 min and 1.78 min and 2.65 min
  Brain entry time, Putamen: 2.07 min and 2.08 min and 2.09 min and 2.00 min
[2]; 0.5 mg/kg MPH, bolus administration
  Brain entry time, Mean: 2 min and 2.14 ± 0.25 min and 2.14 min
[2]; [10]
  Brain entry time, Caudate: 7.15 min and 6.48 min
  Brain entry time, Putamen: 5.77 min and 7.69 min
[2]; 4.3 mg MPH, bolus + 4 step infusion
  Brain entry time, Mean: 6.77 min
[2]; MPH 0.1 mg/kg i.v. 3 min bolus
  Percent maximum displacement (= % DAT occupancy), Caudate\Putamen mean, Mean ± SD: 69% and 68.60 ± 5.21%
[2]; [11]
  Percent maximum displacement (= % DAT occupancy), Caudate nucleus: 72.4% and 72.7% and 64.2% and 60.4%
  Percent maximum displacement (= % DAT occupancy), Caudate\Putamen mean: 73.1% and 63.6% and 64.6%
  Percent maximum displacement (= % DAT occupancy), Putamen: 73.7% and 73.5% and 62.9% and 68.8%
[2]; MPH 0.5 mg/kg i.v. 3 min bolus
  Percent maximum displacement (= % DAT occupancy), Caudate\Putamen mean, Mean ± SD: 88% and 88.20 ± 2.62%
[2]; [12]
  Percent maximum displacement (= % DAT occupancy), Caudate nucleus: 91.7% and 87.9% and 83.9% and 87.0%
  Percent maximum displacement (= % DAT occupancy), Caudate\Putamen mean: 91.3% and 88.5% and 84.9% and 88.1%
  Percent maximum displacement (= % DAT occupancy), Putamen: 90.9% and 89.0% and 85.9% and 89.1%
[2]; [13]
  Percent maximum displacement (= % DAT occupancy), Caudate nucleus: 87.9% and 90.2%
  Percent maximum displacement (= % DAT occupancy), Caudate\Putamen mean: 88.9% and 89.5%
  Percent maximum displacement (= % DAT occupancy), Putamen: 89.9% and 88.9%
[2]; MPH 4.3 mg, bolus plus 4-step infusion over 40 min
  Percent maximum displacement (= % DAT occupancy), Caudate\putamen mean, Mean: 89.2%
[2]; bolus + 4 step infusion, matched delivery, MPH relative to DAS
  Brain entry faster than DAS: ~3 fold
[2]; i.v. bolus, MPH relative to DAS
  Displacement of [18F]-FE-PE2I / DAT occupancy faster than DAS (displacement half-times): approximately 3 fold
Plasma protein; ref Faraj et al. [1974]
  Plasma protein binding: < 14%

## N[C@@H]1CC[C@@H](c2ccc(Cl)c(Cl)c2)c2ccccc21 [DAS, (1R,4S)-4-(3,4-dichlorophenyl)-1,2,3,4-tetra-hydronaphthalen-1-amine]
[3]
  brain:plasma ratio/partition coefficient (Kp): 6.2–12.3
DAT [4]
  IC50: 3 nM
[5]
  Active uptake by SLC and OAT transporters: not actively taken up
[6]
  Substrate for other efflux transporters of the ABC superfamily: not a substrate
[7]
  Potential for abuse: low potential for abuse compared with MPH
[2]; 0.1 mg/kg DAS i.v. bolus
  Averaged displacement half-time (between caudate and putamen): 40 min
[2]; [14]
  Brain entry time, Caudate: 18.91 min and 27.13 min and 25.06 min and 19.23 min
  Brain entry time, Putamen: 15.35 min and 18.83 min and 33.22 min and 19.5 min
[2]; 0.1 mg/kg DAS, bolus administration
  Brain entry time, Mean: 22 min and 22.15 ± 5.85 min and 22.15 min
[2]; 0.2 mg/kg DAS i.v. bolus
  Averaged displacement half-time (between caudate and putamen): 31 min
[2]; [15]
  Brain entry time, Caudate: 19.90 min and 19.65 min and 12.09 min and 13.12 min
  Brain entry time, Putamen: 11.47 min and 17.71 min and 12.60 min and 16.03 min
[2]; 0.2 mg/kg DAS, bolus administration
  Brain entry time, Mean: 15 min and 15.32 ± 3.45 min and 15.32 min
[2]; [16]
  Brain entry time, Caudate: 16.07 min and 16.34 min
  Brain entry time, Putamen: 16.33 min and 18.57 min
[2]; 6 mg DAS, bolus + 4 step infusion
  Brain entry time, Mean: 16.83 min
[2]; DAS 0.1 mg/kg i.v. 3 min bolus
  Percent maximum displacement (= % DAT occupancy), Caudate\Putamen mean, Mean ± SD: 54% and 54.48 ± 10.04%
[2]; [17]
  Percent maximum displacement (= % DAT occupancy), Caudate nucleus: 56.1% and 49.9% and 40.8% and 53.4%
  Percent maximum displacement (= % DAT occupancy), Caudate\Putamen mean: 61.2% and 52.5% and 41.1% and 63.1%
  Percent maximum displacement (= % DAT occupancy), Putamen: 66.3% and 55.0% and 41.5% and 72.8%
[2]; DAS 0.2 mg/kg i.v. 3 min bolus
  Percent maximum displacement (= % DAT occupancy), Caudate\Putamen mean, Mean ± SD: 68% and 68.13 ± 10.30%
[2]; [18]
  Percent maximum displacement (= % DAT occupancy), Caudate nucleus: 64.8% and 67.9% and 70.1% and 50.7%
  Percent maximum displacement (= % DAT occupancy), Caudate\Putamen mean: 76% and 72.5% and 71% and 53%
  Percent maximum displacement (= % DAT occupancy), Putamen: 87.3% and 77.1% and 72% and 55.3%
[2]; [19]
  Percent maximum displacement (= % DAT occupancy), Caudate nucleus: 83.7% and 82.0%
  Percent maximum displacement (= % DAT occupancy), Caudate\Putamen mean: 81.6% and 85.6% and 81.7%
  Percent maximum displacement (= % DAT occupancy), Putamen: 87.4% and 81.3%
[2]; DAS 6.0 mg, bolus plus 4-step infusion over 40 min
  Percent maximum displacement (= % DAT occupancy), Caudate\putamen mean, Mean: 83.6%
[2]; i.v. administration, DAS relative to MPH
  Brain entry / DAT occupancy rate slower than MPH: ~ 7 fold and 5-11 fold
[2]; rhesus monkey, plasma level
  DAT RO50 from this study: 3.5 ng/mL
P-gp
  Substrate for P-gp: not a substrate
Plasma protein; Data-on-file, ref Sunovion report 360–455
  Plasma protein binding: ~ 97%
Plasma protein; as fraction, Sunovion report 360–455 (DAS)
  Plasma protein binding (fraction): ~ 0.97
